Like-named read-outs stand apart in the source and are kept apart here. Values belong to the molecule of their own block, whether it stands above or below them.
How the values were obtained:
[1] = system: Topo II; conditions: read-out: Topo II IC50; cited from earlier work
[2] = system: HepG-2, HCT-116, MCF-7 and HeLa cells; assay: MTT cytotoxicity assay, all four cancer cell lines together; format: cell-based; conditions: for Cytotoxic activity category, all four tested cancer cell lines: category in words by IC50, HepG-2, HCT-116, MCF-7, HeLa
[3] = system: MCF-7 cells; assay: MTT cytotoxicity assay, MCF-7; conditions: Homo sapiens
[4] = system: HepG-2 cells; assay: MTT cytotoxicity assay, HepG-2; format: cell-based; conditions: Homo sapiens
[5] = system: HeLa cells; assay: MTT cytotoxicity assay, HeLa; conditions: Homo sapiens
[6] = system: HCT-116 cells; assay: MTT cytotoxicity assay, HCT-116; conditions: Homo sapiens
[7] = system: HepG-2 cells; assay: Flow cytometry cell cycle analysis; format: cell-based; conditions: HepG-2, PI staining
[8] = molecular target: VEGFR-2 (Homo sapiens, UniProt P35968); assay: In vitro VEGFR-2 enzyme inhibition assay; format: biochemical
Chain of VEGFR-2 (P35968 20-1356): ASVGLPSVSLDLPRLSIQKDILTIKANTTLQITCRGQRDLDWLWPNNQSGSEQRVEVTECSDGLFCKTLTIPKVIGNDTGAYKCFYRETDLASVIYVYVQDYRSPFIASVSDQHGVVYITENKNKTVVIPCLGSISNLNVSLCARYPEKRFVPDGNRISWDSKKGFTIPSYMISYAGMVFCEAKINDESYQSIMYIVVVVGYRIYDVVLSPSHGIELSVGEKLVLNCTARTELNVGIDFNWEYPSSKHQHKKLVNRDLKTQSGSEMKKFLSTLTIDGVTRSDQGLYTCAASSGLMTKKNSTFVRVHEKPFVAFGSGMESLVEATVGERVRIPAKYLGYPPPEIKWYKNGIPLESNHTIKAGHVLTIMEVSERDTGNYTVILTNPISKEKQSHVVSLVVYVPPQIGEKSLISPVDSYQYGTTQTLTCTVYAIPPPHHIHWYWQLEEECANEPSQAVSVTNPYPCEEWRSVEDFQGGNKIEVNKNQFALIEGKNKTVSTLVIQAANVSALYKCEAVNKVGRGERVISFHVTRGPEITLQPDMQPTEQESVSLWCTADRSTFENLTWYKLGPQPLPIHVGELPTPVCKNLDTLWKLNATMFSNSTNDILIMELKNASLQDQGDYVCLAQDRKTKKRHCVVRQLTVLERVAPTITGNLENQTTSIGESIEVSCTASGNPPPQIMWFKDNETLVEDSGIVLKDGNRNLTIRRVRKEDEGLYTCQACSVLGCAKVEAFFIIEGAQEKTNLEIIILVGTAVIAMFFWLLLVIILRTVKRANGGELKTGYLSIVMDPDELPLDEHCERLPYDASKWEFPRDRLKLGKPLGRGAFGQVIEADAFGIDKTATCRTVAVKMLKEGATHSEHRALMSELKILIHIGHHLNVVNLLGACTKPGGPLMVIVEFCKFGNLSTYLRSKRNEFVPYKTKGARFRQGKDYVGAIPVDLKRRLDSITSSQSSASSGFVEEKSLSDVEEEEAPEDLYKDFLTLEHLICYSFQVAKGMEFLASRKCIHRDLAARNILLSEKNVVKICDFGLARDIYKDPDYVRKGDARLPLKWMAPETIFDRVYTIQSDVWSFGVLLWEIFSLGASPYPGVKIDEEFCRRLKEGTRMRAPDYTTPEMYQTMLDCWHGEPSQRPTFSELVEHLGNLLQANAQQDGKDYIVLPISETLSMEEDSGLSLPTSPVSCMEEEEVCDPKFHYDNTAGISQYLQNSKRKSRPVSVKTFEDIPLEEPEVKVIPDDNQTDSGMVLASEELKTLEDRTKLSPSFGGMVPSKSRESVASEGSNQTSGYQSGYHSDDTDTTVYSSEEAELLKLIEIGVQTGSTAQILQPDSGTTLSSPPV

[9] = system: WI-38 cell line; assay: In vitro cytotoxicity against normal WI-38 cell line; format: cell-based; conditions: Homo sapiens, WI-38, read-out: Normal cells IC50 WI-38
[10] = system: HepG-2 cells; assay: Annexin V-FITC/PI apoptosis assay; format: cell-based; conditions: HepG-2, 24 h
[11] = molecular target: EGFR (Homo sapiens, UniProt P00533); assay: biochemical; format: biochemical
Chain of EGFR (P00533 25-1210): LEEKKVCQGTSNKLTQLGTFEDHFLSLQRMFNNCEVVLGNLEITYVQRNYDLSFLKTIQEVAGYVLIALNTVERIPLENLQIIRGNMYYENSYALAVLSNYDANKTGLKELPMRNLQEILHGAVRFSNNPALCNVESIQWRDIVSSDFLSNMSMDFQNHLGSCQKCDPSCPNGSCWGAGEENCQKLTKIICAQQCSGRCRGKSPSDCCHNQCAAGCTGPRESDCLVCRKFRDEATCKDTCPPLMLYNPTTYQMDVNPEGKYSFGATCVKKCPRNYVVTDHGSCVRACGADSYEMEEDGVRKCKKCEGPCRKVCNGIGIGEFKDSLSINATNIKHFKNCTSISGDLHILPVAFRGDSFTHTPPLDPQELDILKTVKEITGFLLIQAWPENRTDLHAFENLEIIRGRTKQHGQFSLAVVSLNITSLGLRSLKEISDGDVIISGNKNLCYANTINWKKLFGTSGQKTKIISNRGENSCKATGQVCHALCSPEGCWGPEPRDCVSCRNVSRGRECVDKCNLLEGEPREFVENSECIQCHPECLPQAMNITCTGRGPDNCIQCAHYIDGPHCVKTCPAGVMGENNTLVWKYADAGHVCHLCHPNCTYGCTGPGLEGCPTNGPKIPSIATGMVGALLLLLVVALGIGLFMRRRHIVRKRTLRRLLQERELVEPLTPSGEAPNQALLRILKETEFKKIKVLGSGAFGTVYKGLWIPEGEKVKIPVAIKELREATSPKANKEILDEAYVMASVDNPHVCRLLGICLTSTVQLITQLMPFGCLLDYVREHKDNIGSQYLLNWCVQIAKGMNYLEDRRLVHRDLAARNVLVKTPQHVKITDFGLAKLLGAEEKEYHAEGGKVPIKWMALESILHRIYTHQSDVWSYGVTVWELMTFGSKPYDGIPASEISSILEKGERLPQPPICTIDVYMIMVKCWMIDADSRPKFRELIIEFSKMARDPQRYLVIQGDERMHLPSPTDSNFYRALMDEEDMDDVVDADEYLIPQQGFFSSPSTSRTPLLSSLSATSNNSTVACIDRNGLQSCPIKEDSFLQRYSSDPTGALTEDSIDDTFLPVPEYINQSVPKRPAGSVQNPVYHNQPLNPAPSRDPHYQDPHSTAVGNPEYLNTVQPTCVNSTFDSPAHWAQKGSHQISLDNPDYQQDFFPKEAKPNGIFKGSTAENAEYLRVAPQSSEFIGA

[12] = molecular target: Topo II; assay: In vitro Topo II enzyme inhibition assay; format: biochemical; conditions: read-out: Topo II IC50; mean ± SD
[13] = molecular target: EGFR, VEGFR-2, and Topo II; assay: In vitro enzyme inhibition assays, three enzymes together; format: biochemical; conditions: read-out: IC50 range on EGFR, VEGFR-2, and Topo II; range over the three enzymes
[14] = molecular target: Topoisomerase II (Topo II); conditions: read-out: Topo II IC50; cited from earlier work
[15] = system: Topo IIB; conditions: read-out: Topo IIB IC50; cited from earlier work
[16] = MCF7, 48 h, read-out: In vitro Cytotoxicity IC50 MCF-7
[17] = HepG2, 48 h, read-out: In vitro Cytotoxicity IC50 HepG-2
[18] = 48 h, read-out: In vitro Cytotoxicity IC50 HeLa
[19] = HCT-116, 48 h, read-out: In vitro Cytotoxicity IC50 HCT-116
[20] = MCF7, read-out: Cytotoxic activity category, MCF-7
[21] = HepG2, read-out: Cytotoxic activity category, HepG-2
[22] = read-out: Cytotoxic activity category, HeLa
[23] = HCT-116, read-out: Cytotoxic activity category, HCT-116
[24] = read-out: Cytotoxic activity category, all four tested cancer cell lines
[25] = read-out: IC50 range over the four cancer cell lines

Molecule: 2-phenylthiomethylbenzimidazole [VI]
IC50 [1]: 17 µM

Molecule: Cc1c(C(=O)NNC(=O)Nc2cccc3ccccc23)nnn1Cc1nc2ccccc2[nH]1 [Compound 5c, 2-{1-[(1h-Benzo[d]imidazol-2-yl)methyl]-5-methyl-1H-1,2,3-triazole-4-carbonyl}-N-(naphthalen-1-yl)hydrazinecarboxamide]
Cytotoxic activity category, all four tested cancer cell lines [2]: weak to moderate
IC50 [3, 16]: 45.4 ± 2.9 µM
IC50 [4, 17]: 67.4 ± 3.5 µM
IC50 [5, 18]: 27.6 ± 2 µM
IC50 [6, 19]: 59.2 ± 3.3 µM

Molecule: Cc1c(C(=O)NNC(=S)Nc2ccccc2)nnn1Cc1nc2ccccc2[nH]1 [Compound 5d, 2-{1-[(1h-Benzo[d]imidazol-2-yl)methyl]-5-methyl-1H-1,2,3-triazole-4-carbonyl}-N-phenylhydrazinecarbothioamide]
IC50 [3, 16]: 30.8 ± 2.3 µM
IC50 [3, 20]: 21 to 50 µM
IC50 [4, 17]: 57.2 ± 3.2 µM
IC50 [4, 21]: 51 to 100 µM
IC50 [5, 18]: 12.4 ± 0.9 µM
IC50 [5, 22]: 11 to 20 µM
IC50 [6, 19]: 41.4 ± 2.8 µM
IC50 [6, 23]: 21 to 50 µM

Molecule: Cc1ccc(NC(=S)NNC(=O)c2nnn(Cc3nc4ccccc4[nH]3)c2C)cc1 [Compound 5f, 2-{1-[(1h-Benzo[d]imidazol-2-yl)methyl]-5-methyl-1H-1,2,3-triazole-4-carbonyl}-N-(p-tolyl)hydrazinecarbothioamide]
IC50 [3, 16]: 64.1 ± 3.3 µM
IC50 [4, 17]: 72.7 ± 3.8 µM
IC50 [5, 18]: 58.1 ± 3.1 µM
IC50 [6, 19]: 68.5 ± 3.7 µM

Molecule: COc1ccc(NC(=S)NNC(=O)c2nnn(Cc3nc4ccccc4[nH]3)c2C)cc1 [Compound 5g, 2-{1-[(1h-Benzo[d]imidazol-2-yl)methyl]-5-methyl-1H-1,2,3-triazole-4-carbonyl}-N-(4-methoxyphenyl)hydrazinecarbothioamide]
IC50 [3, 16]: 9.39 ± 0.8 µM
IC50 [4, 17]: 13.6 ± 1 µM
IC50 [5, 18]: 8.7 ± 0.6 µM
IC50 [6, 19]: 18.7 ± 1.5 µM

Molecule: Cc1c(C(=O)NNC(=O)Nc2ccccc2)nnn1Cc1nc2ccccc2[nH]1 [Compound 5h, 2-{1-[(1h-Benzo[d]imidazol-2-yl)methyl]-5-methyl-1H-1,2,3-triazole-4-carbonyl}-N-phenylhydrazinecarboxamide]
Cytotoxic activity category, all four tested cancer cell lines [2]: weak to moderate
IC50 [3, 16]: 38 ± 2.6 µM
IC50 [4, 17]: 42.1 ± 2.7 µM
IC50 [5, 18]: 31.6 ± 2.3 µM
IC50 [6, 19]: 54.8 ± 3 µM

Molecule: Cc1c(C(=O)N/N=C/c2ccc(Cl)cc2)nnn1Cc1nc2ccccc2[nH]1 [Compound 6a, (E)-1-[(1H-Benzo[d]imidazol-2-yl)methyl]-N′-(4-chlorobenzylidene)-5-methyl-1H-1,2,3-triazole-4-carbohydrazide]
IC50 [2, 24]: 21 to 50 µM
IC50 [2, 25]: 28.2 to 47 µM
IC50 [3, 16]: 39.5 ± 2.6 µM
IC50 [4, 17]: 47 ± 2.8 µM
IC50 [5, 18]: 35.3 ± 2.5 µM
IC50 [6, 19]: 28.2 ± 2.5 µM

Molecule: Cc1c(C(=O)N/N=C/c2ccccc2)nnn1Cc1nc2ccccc2[nH]1 [Compound 6b, (E)-1-[(1H-Benzo[d]imidazol-2-yl)methyl]-N′-benzylidene-5-methyl-1H-1,2,3-triazole-4-carbohydrazide]
IC50 [3, 16]: 57.6 ± 3.3 µM
IC50 [4, 17]: 84.5 ± 4.1 µM
IC50 [5, 18]: 61.2 ± 3.4 µM
IC50 [6, 19]: 75.1 ± 3.8 µM

Molecule: Cc1c(C(=O)N/N=C/c2cccc(Br)c2)nnn1Cc1nc2ccccc2[nH]1 [Compound 6c, (E)-1-[(1H-Benzo[d]imidazol-2-yl)methyl]-N′-(3-bromobenzylidene)-5-methyl-1H-1,2,3-triazole-4-carbohydrazide]
IC50 [3, 16]: 44.8 ± 2.9 µM
IC50 [4, 17]: 56.3 ± 3.2 µM
IC50 [5, 18]: 48.8 ± 2.8 µM
IC50 [6, 19]: 63.6 ± 3.3 µM

Molecule: Cc1c(C(=O)N/N=C/c2cccc([N+](=O)[O-])c2)nnn1Cc1nc2ccccc2[nH]1 [Compound 6d, (E)-1-[(1H-Benzo[d]imidazol-2-yl)methyl]-5-methyl-N′-(3-nitrobenzylidene)-1H-1,2,3-triazole-4-carbohydrazide]
IC50 [3, 16]: 48.2 ± 3 µM
IC50 [4, 17]: 71.5 ± 3.6 µM
IC50 [5, 18]: 52.2 ± 3.1 µM
IC50 [6, 19]: 36.5 ± 2.7 µM

Molecule: COc1ccc(/C=N/NC(=O)c2nnn(Cc3nc4ccccc4[nH]3)c2C)cc1OC [Compound 6e, (E)-1-[(1H-Benzo[d]imidazol-2-yl)methyl]-N′-(3,4-dimethoxybenzylidene)-5-methyl-1H-1,2,3-triazole-4-carbohydrazide]
IC50 [3, 16]: 23.7 ± 1.9 µM
IC50 [3, 20]: 21 to 50 µM
IC50 [4, 17]: 33.6 ± 2.3 µM
IC50 [4, 21]: 21 to 50 µM
IC50 [5, 18]: 29.1 ± 2.3 µM
IC50 [5, 22]: 21 to 50 µM
IC50 [6, 19]: 19.7 ± 1.7 µM
IC50 [6, 23]: 11 to 20 µM

Molecule: Cc1c(C(=O)N/N=C/c2ccc(N(C)C)cc2)nnn1Cc1nc2ccccc2[nH]1 [Compound 6f, (E)-1-[(1H-Benzo[d]imidazol-2-yl)methyl]-N′-[4-(dimethylamino)benzylidene]-5-methyl-1H-1,2,3-triazole-4-carbohydrazide]
IC50 [3, 16]: 14.7 ± 1.1 µM
IC50 [3, 20]: 11 to 20 µM
IC50 [4, 17]: 18.3 ± 1.5 µM
IC50 [4, 21]: 11 to 20 µM
IC50 [5, 18]: 22.8 ± 1.9 µM
IC50 [5, 22]: 21 to 50 µM
IC50 [6, 19]: 11.7 ± 0.9 µM
IC50 [6, 23]: 11 to 20 µM

Activity relative to Sorafenib against VEGFR-2 [8]: 21%
Activity relative to Gefitinib against EGFR [11]: ~40%
IC50 [11]: 0.131 ± 0.005 µM
IC50 [12]: 8.37 ± 0.49 µM
IC50 [13]: 0.131 to 8.37 µM
Molecule: COc1cc(/C=N/NC(=O)c2nnn(Cc3nc4ccccc4[nH]3)c2C)ccc1O [Compound 6g, (E)-1-[(1H-Benzo[d]imidazol-2-yl)methyl]-N′-(4-hydroxy-3-methoxybenzylidene)-5-methyl-1H-1,2,3-triazole-4-carbohydrazide]
Cell cycle distribution G0-G1 [7]: 38.91%
Cell cycle distribution G2/M [7]: 33.81%
Cell cycle distribution Pre-G1 [7]: 36.28%
Cell cycle distribution S [7]: 27.28%
IC50 [2, 24]: 1 to 10 µM
IC50 [2, 25]: 3.34 to 10.9 µM
IC50 [3, 16]: 7.11 ± 0.5 µM
IC50 [9]: 43.3 ± 2.6 µM
IC50 [4, 17]: 10.9 ± 0.8 µM
Apoptosis Early (Q4) [10]: 11.02%
Apoptosis Late (Q2) [10]: 19.85%
Apoptosis Total [10]: 30.87%
Necrosis (Q1) [10]: 5.41%
IC50 [5, 18]: 9.84 ± 0.7 µM
IC50 [6, 19]: 3.34 ± 0.4 µM

Molecule: CN1CCN(c2ccc3nc(-c4c(N)c5c(F)cccc5[nH]c4=O)[nH]c3c2)CC1 [Dovitinib]
IC50 [14]: 13 µM

Molecule: COc1cccc2c1C(=O)c1c(O)c3c(c(O)c1C2=O)C[C@@](O)(C(=O)CO)C[C@@H]3O[C@H]1C[C@H](N)[C@H](O)[C@H](C)O1 [Dox, Doxorubicin, reference compound]
IC50 [2, 25]: 4.17 to 5.57 µM
IC50 [4, 17]: 4.5 ± 0.2 µM
IC50 [15]: 0.83 µM
